Measured values as given in patent US20240299562A1 (priority 2020, published 2024).
Several values for one entry are separate records, joined by “and”; a condition that tells them apart may be missing. Equal values may be shown once. Read-outs that look alike come from different tables or passages of the source. Blank lines part the entries; values can stand above or below the compound they belong to. *1 amine or outer side, *2 acyl side, *3 side chain or, on linkers, in order; H or OH if unused. Where a SMILES comes first, the peptide text is derived from it. [ ]: non-standard residue; d: D form. The star is where a group is joined. X1 = CO[C@@H](C1CCCN1[*:1])[C@@H](C)C(=O)[*:2]; Dil = CC[C@H](C)[C@H](NC)[C@@H](CC(=O)O)OC; PABC = O=C(OCc1ccc(N[*:1])cc1)[*:2]; Phosphonoacetyl = O=C(CP(=O)(O)O)*; X2 = C[C@@H](N*)[C@@H](O)c1ccccc1; NMeV = CN[C@H](C(=O)O)C(C)C

Tests used:
[1] = system: Human umbilical vein endothelial cells (HUVEC); assay: WST-1 cell viability, normal HUVEC cells; assay type: cell-based; details: 72 hrs
Method: (§1) All commercial cell lines were purchased at ATCC (LGC Standards SARL, France). Cells were seeded in 96-well plates according to their optimal seeding density, varying between 5.000 and 10.000 cells/well. After attachment overnight, 10-point serial titrations (1:5) were prepared in their equivalent complete media as recommended by ATCC, starting from the 10 mM stock solutions. For doxorubicin comprising prodrugs dilutions started from 100 μM, while for the parent compound doxorubicin dilutions started at 10 μM. […] Seventy-two hours later, compounds were removed together with the supernatants and cells were washed once with PBS to remove excess drugs.
(§2) The WST-1 assay for cell proliferation and viability (Roche, Switzerland) was performed according to manufacturer's protocol. Absorbances were measured at 4 hrs using a Perkin Elmer Ensight multiplate reader, equipped with Kaleido 2.0 software (Perkin Elmer, USA). Cell viability was expressed as a percentage compared to non-treated cells. Absolute IC50 values were extrapolated from a non-linear fitting following the Sigmoidal-4PL regression method using Graphpad Prism 7.0. Likewise, maximal efficacy was determined as 100% minus the cell viability determined when cells are incubated in the presence of a compound. For instance, if 20% of the cells survive incubation in the presence of a compound, then the maximal efficacy of that compound is 100%-20%=80%.
(§3) Selectivity indices (SI) were defined as the ratio of the concentration of drug required to kill 50% of the cells in normal (control, non-cancer) cells, divided by the concentration required to exert the same efficacy in tumor cells: SI=IC50 (control cell)/IC50 (cancer cell), or SI=^HME-1IC50/cancer IC50.

HME-1 cells = assay: WST-1 cell viability, normal HME-1 cells; assay type: cell-based, human; details: for IC50: read-out: Absolute IC50
Method: as §1, §2, §3

A2058 cells = assay: WST-1 cell viability, A2058 melanoma cells; assay type: cell-based; details: for IC50: read-out: Absolute IC50
Method: as §1, §2, §3

U-87 MG cells = assay: WST-1 cell viability, U-87 MG glioblastoma cells; assay type: cell-based; details: for IC50: read-out: Absolute IC50
Method: as §1, §2, §3

MDA-MB-231 cells = assay: WST-1 cell viability, MDA-MB-231 triple negative breast cancer cells; assay type: cell-based; details: for IC50: read-out: Absolute IC50
Method: as §1, §2, §3

[2] = system: hiPSC-derived astrocytes (iAstro); assay: WST-1 cell viability, hiPSC-derived astrocytes (iAstro); assay type: cell-based, human; details: iAstro normal astrocytes, 72 hrs
Method: as §1, §2, §3
hiPSC-derived astrocytes were purchased from Tempo Biosciences (iAstro™). Prior to use, six-well plates were coated with 1 ml GFR Matrigel (1:100˜0.1 mg/ml, Corning #356231) and allowed to polymerize at 37° C. overnight. Three days before assaying, cells were defrosted and seeded onto the GFR Matrigel in iAstro medium, and allowed to recover from defrosting for 48 hrs. The recovery was aided using RevitaCell™ Supplement during the first 24 hrs. After morphological inspection, cells were transferred to 96-well plates and 4-well microscopy vessels (Millipore), coated with Poly-L-lysine (50 μg/ml, P2533, Sigma Aldrich) and mouse laminin (4 ng/ml, L2020, Sigma Aldrich), using StemPro Accutase reagent (Invitrogen). Following overnight recovery, iAstro's were exposed to the same treatment protocol described above.

A-172 cells = assay: WST-1 cell viability, A-172 glioblastoma cells; assay type: cell-based; details: for IC50: read-out: Absolute IC50
Method: as §1, §2, §3

DU145 cells = assay: WST-1 cell viability, DU145 prostate cancer cells; assay type: cell-based
Method: as §1, §2, §3

HCT-116 cells = assay: WST-1 cell viability, HCT-116 colorectal cancer cells; assay type: cell-based
Method: as §1, §2, §3

MIA PaCa-2 cells = assay: WST-1 cell viability, MIA PaCa-2 pancreatic cancer cells; assay type: cell-based
Method: as §1, §2, §3

A2780 Cp cells = assay: WST-1 cell viability, A2780 CpR (cisplatin resistant) ovarian cancer cells; assay type: cell-based
Method: as §1, §2, §3

NCI-H292 cells = assay: WST-1 cell viability, NCI-H292 lung cancer cells; assay type: cell-based
Method: as §1, §2, §3

LS 174T cells = assay: WST-1 cell viability, LS 174T colorectal cancer cells; assay type: cell-based
Method: as §1, §2, §3

[3] = WST-1 (Table 4), read-out: Absolute IC50

SMILES: CC[C@H](C)[C@@H]([C@@H](CC(=O)N1CCCC1[C@H](OC)[C@@H](C)C(=O)N[C@H](C)[C@@H](O)c1ccccc1)OC)N(C)C(=O)[C@@H](NC(=O)[C@H](C(C)C)N(C)C(=O)OCc1ccc(NC(=O)[C@@H]2CCCN2C(=O)[C@H](CC(C)C)NC(=O)[C@H](CC(C)C)NC(=O)[C@H](C)NC(=O)CP(=O)(O)O)cc1)C(C)C (stereo partly drawn) [PhAc-ALLP-PABC-MMAE] (Phosphonoacetyl-ALLP[PABC][NMeV]V[Dil][X1]-X2)
- IC50 [1, 3]: 170 nM
- Maximal efficacy ([1]; WST-1 (Table 5)): 98.1%
- Toxicity compared to MMAE on mammary epithelial (HME-1) cells (HME-1 cells; HME-1 normal cells): not significantly different
- IC50 (HME-1 cells; HME-1 normal cells, 72 hrs, WST-1 (Table 4)): 10 nM
- Maximal efficacy (HME-1 cells; HME-1 normal cells, 72 hrs, WST-1, cytotoxicity at highest concentration (Table 5)): 99.5%
- SI = normal IC50 / cancer IC50 (A2058 cells; A2058 (Melanoma), selectivity towards HME-1 cells (Table 6)): 0.3
- IC50 (A2058 cells; A2058 (Melanoma), 72 hrs, WST-1 (Table 4)): 30 nM
- Maximal efficacy (A2058 cells; A2058 (Melanoma), 72 hrs, WST-1 (Table 5)): 95.2%
- SI = HUVEC IC50 / cancer IC50 (U-87 MG cells; U-87 MG (GBM), * towards HUVEC cells (Table 6)): *2.4
- SI = iAstro IC50 / cancer IC50 (U-87 MG cells; U-87 MG (GBM), ** towards hiPSCs (iAstro) (Table 6)): **>500
- SI = normal IC50 / cancer IC50 (U-87 MG cells; U-87 MG (GBM), selectivity towards HME-1 cells (Table 6)): 0.1
- IC50 (U-87 MG cells; U-87 MG (GBM), 72 hrs, WST-1 (Table 4)): 70 nM
- Maximal efficacy (U-87 MG cells; U-87 MG (GBM), 72 hrs, WST-1 (Table 5)): 86.6%
- SI = normal IC50 / cancer IC50 (MDA-MB-231 cells; MDA-MB-231 (TNBC), selectivity towards HME-1 cells (Table 6)): 0.2
- IC50 (MDA-MB-231 cells; MDA-MB-231 (TNBC), 72 hrs, WST-1 (Table 4)): 40 nM
- Maximal efficacy (MDA-MB-231 cells; MDA-MB-231 (TNBC), 72 hrs, WST-1 (Table 5)): 77.6%
- IC50 [2, 3]: > 500 nM
- Maximal efficacy ([2]; WST-1 (Table 5)): 2% and 1.7%
- SI = HUVEC IC50 / cancer IC50 (A-172 cells; A-172 (GBM), * towards HUVEC cells (Table 6)): *1.9
- SI = iAstro IC50 / cancer IC50 (A-172 cells; A-172 (GBM), ** towards hiPSCs (iAstro) (Table 6)): **>500
- SI = normal IC50 / cancer IC50 (A-172 cells; A-172 (GBM), selectivity towards HME-1 cells (Table 6)): 0.1
- IC50 (A-172 cells; A-172 (GBM), 72 hrs, WST-1 (Table 4)): 90 nM
- Maximal efficacy (A-172 cells; A-172 (GBM), 72 hrs, WST-1 (Table 5)): 97.4%
- Selectivity index determined on HUVECs, GBM (A-172 cells; GBM indication as a whole (A-172 and U-87 MG), vs HUVEC): 2.2
- Selectivity index towards hiPSC-derived astrocytes, GBM (A-172 cells; GBM indication as a whole (A-172 and U-87 MG), vs iAstro): > 10

- SI = HME-1 IC50/cancer IC50 (DU145 cells; DU145 (PrC) vs HME-1 (Table 3)): 1.55
- IC50 (DU145 cells; Homo sapiens, DU-145, DU145 (PrC), 72 hrs, WST-1 (Table 1), read-out: Absolute IC50): 30 nM
- SI = HME-1 IC50/cancer IC50 (HCT-116 cells; HCT-116 (CrC) vs HME-1 (Table 3)): 0.36
- IC50 (HCT-116 cells; Homo sapiens, HCT-116 (CrC), 72 hrs, WST-1 (Table 1), read-out: Absolute IC50): 120 nM
- SI = HME-1 IC50/cancer IC50 (A2058 cells; A2058 (Melanoma) vs HME-1 (Table 3)): 0.11
- IC50 (A2058 cells; Homo sapiens, A2058 (Melanoma), 72 hrs, WST-1 (Table 1)): 410 nM
- IC50 (U-87 MG cells; Homo sapiens, U-87 MG (GBM), 72 hrs, WST-1 (Table 1)): 70 nM
- SI = HME-1 IC50/cancer IC50 (U-87 MG cells; U-87 MG (GBM) vs HME-1 (Table 3)): 0.59
- IC50 (MDA-MB-231 cells; Homo sapiens, MDA-MB-231 (TNBC), 72 hrs, WST-1 (Table 1)): 120 nM
- SI = HME-1 IC50/cancer IC50 (MDA-MB-231 cells; MDA-MB-231 (TNBC) vs HME-1 (Table 3)): 0.38
- IC50 (MIA PaCa-2 cells; Homo sapiens, MIA PaCa-2 (PaC), 72 hrs, WST-1 (Table 1), read-out: Absolute IC50): 100 nM
- SI = HME-1 IC50/cancer IC50 (MIA PaCa-2 cells; MIA PaCa-2 (PaC) vs HME-1 (Table 3)): 0.44
- IC50 (A2780 Cp cells; A2780C/P, A2780 Cp (OvC, cisplatin resistant), 72 hrs, WST-1 (Table 1), read-out: Absolute IC50): 80 nM
- SI = HME-1 IC50/cancer IC50 (A2780 Cp cells; A2780 Cp (OvC) vs HME-1 (Table 3)): 0.57
- SI = HME-1 IC50/cancer IC50 (A-172 cells; A-172 (GBM) vs HME-1 (Table 3)): 0.01
- IC50 (A-172 cells; Homo sapiens, A-172 (GBM), 72 hrs, WST-1 (Table 1)): 3360 nM
- IC50 (NCI-H292 cells; Homo sapiens, NCI-H292 (NSCLC), 72 hrs, WST-1 (Table 1), read-out: Absolute IC50): 30 nM
- SI = HME-1 IC50/cancer IC50 (NCI-H292 cells; NCI-H292 (NSCLC) vs HME-1 (Table 3)): 1.62
- IC50 (LS 174T cells; Homo sapiens, LS174T, LS 174T (CrC), 72 hrs, WST-1 (Table 1), read-out: Absolute IC50): 10 nM
- SI = HME-1 IC50/cancer IC50 (LS 174T cells; LS 174T (CrC) vs HME-1 (Table 3)): 4.47
SMILES: COc1cccc2c1C(=O)c1c(O)c3c(c(O)c1C2=O)C[C@@](O)(C(=O)CO)C[C@@H]3O[C@H]1C[C@H](N)[C@H](O)[C@H](C)O1 [Doxorubicin, reference compound]
- cytotoxicity at 100 µM (DU145 cells; Homo sapiens, DU-145, DU145 (PrC), 72 hrs, WST-1 (Table 2), read-out: Maximal efficacy, cytotoxicity (%) at 100 μM): 92.5%
- cytotoxicity at 100 µM (HCT-116 cells; Homo sapiens, HCT-116 (CrC), 72 hrs, WST-1 (Table 2), read-out: Maximal efficacy, cytotoxicity (%) at 100 μM): 93.5%
- SI = HME-1 IC50/cancer IC50 (HME-1 cells; HME-1 normal cells against themselves (Table 3)): 1.00
- IC50 (HME-1 cells; Homo sapiens, HME1, HME-1 normal cells, 72 hrs continuous drug exposure, WST-1 (Table 1)): 40 nM
- cytotoxicity at 100 µM (A2058 cells; Homo sapiens, A2058, 72 h, read-out: Maximal efficacy, cytotoxicity (%) at 100 μM): 97%
- cytotoxicity at 100 µM (U-87 MG cells; Homo sapiens, U-87 MG, 72 h, read-out: Maximal efficacy, cytotoxicity (%) at 100 μM): 71.8%
- cytotoxicity at 100 µM (MDA-MB-231 cells; Homo sapiens, MDA-MB-231, 72 h, read-out: Maximal efficacy, cytotoxicity (%) at 100 μM): 91.5%
- cytotoxicity at 100 µM (MIA PaCa-2 cells; Homo sapiens, MIA PaCa-2 (PaC), 72 hrs, WST-1 (Table 2), read-out: Maximal efficacy, cytotoxicity (%) at 100 μM): 94.4%
- cytotoxicity at 100 µM (A2780 Cp cells; A2780C/P, A2780 Cp (OvC), 72 hrs, WST-1 (Table 2), read-out: Maximal efficacy, cytotoxicity (%) at 100 μM): 94.8%
- cytotoxicity at 100 µM (A-172 cells; Homo sapiens, A 172, 72 h, read-out: Maximal efficacy, cytotoxicity (%) at 100 μM): 89.9%
- cytotoxicity at 100 µM (NCI-H292 cells; Homo sapiens, NCI-H292 (NSCLC), 72 hrs, WST-1 (Table 2), read-out: Maximal efficacy, cytotoxicity (%) at 100 μM): 90.4%
- cytotoxicity at 100 µM (LS 174T cells; Homo sapiens, LS174T, LS 174T (CrC), 72 hrs, WST-1 (Table 2), read-out: Maximal efficacy, cytotoxicity (%) at 100 μM): 93.7%
